Laboratory results taken from BindingDB's records for patent US10155765 (Merck Sharp & Dohme, 2018).

Target: T1, Interleukin-1 receptor-associated kinase 4 (Homo sapiens, UniProt Q9NWZ3)
T1 sequence (Q9NWZ3 whole entry): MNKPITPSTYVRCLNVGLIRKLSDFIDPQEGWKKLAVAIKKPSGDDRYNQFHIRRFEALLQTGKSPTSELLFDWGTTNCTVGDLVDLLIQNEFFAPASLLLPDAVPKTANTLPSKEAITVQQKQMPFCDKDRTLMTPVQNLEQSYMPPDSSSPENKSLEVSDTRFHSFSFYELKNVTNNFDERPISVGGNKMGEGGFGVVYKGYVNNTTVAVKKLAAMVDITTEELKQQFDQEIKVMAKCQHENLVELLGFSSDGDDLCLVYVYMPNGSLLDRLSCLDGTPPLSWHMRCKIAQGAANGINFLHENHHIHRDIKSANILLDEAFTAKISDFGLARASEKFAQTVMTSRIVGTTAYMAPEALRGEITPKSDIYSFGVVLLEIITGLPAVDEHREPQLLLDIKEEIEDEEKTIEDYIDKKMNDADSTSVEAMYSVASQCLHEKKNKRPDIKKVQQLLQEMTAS
Test: IRAK4 Kinase Assay
Protocol: The kinase activity of IRAK4 is determined by its ability to catalyze the phosphorylation of a fluorescent polypeptide substrate. The extent of phosphorylation is measured using the IMAP technology (Molecular Devices) where the phosphorylated fluorescent substrate binds to the large M(III)-based nanoparticles which reduces the rotational speed of the substrate and thus increases its fluorescent polarization (FP).20 μL reaction mixture contains 10 mM TriHCl, pH 7.2, 0.5 nM GST tagged IRAK4 (SignalChem), 100 nM fluorescent peptide substrate (RP7030, Molecular Devices), 100 μM ATP, 1 mM DDT, 1 mM MgCl2, and 0.01% Tween 20. The reaction is initiated by the addition of ATP. After incubation for 30 minutes at 25° C., 60 μL of Progressive IMAP Reagent (Molecular Devices) is added to stop the reaction. Change in RP7030's FP is determined by a FP reader (Analyst HT, LJL BioSystems).

Row | IC50 [µM] | Structure (SMILES)
1 | 0.31 | NC(=O)c1c(NC(=O)c2cnn3ccc(N4CCNCC4)nc23)cnn1-c1ccncc1 [US10155765, Example 35]
2 | 0.37 | CSc1ncc2ccc(C(=O)Nc3cn(C)nc3C(N)=O)n2n1 [US10155765, Example 57]
